Data on 18 molecules can be found in patent US11312701B2, “Formylpyridine derivative having FGFR4 inhibitory activity, preparation method therefor and use thereof” (Abbisko Therapeutics Co., Ltd., priority 2017, dated 2022).

In one assay the target is FGFR4 (Homo sapiens, UniProt P22455). The assay is described as follows: FGFR4 Caliper Assay (in vitro biochemical kinase analysis). The conditions noted are these: Caliper mobility shift, 65 μM ATP, 30° C. 40 minutes; read-out: Enzymatic activity FGFR4 IC50. The method, then:
I. In Vitro Biochemical Kinase Analysis of FGFR4
FGFR4 Caliper Assay was used in the present invention to determine the inhibitory activities • of the compounds against FGFR4. The specific experimental procedure was as follows: 1. The kinase reaction in the present invention was carried out in a 384-well plate, and […] of FGFR4, 65 μM of ATP and 1 μM of peptide (5 Fluo Ahx KKKKEEIYFFFG NH2) were respectively added into the following reaction system. • 2. A reaction system is a mixture solution of 50 mM HEPES, pH 7.5, 1 mM DTT, 0.02% Tween 20, 0.02% BSA, 0.6% DMSO, 10 mM beta glycerol phosphate and 10 μM sodium orthovanadate and 16 mM MgCl2. • 3. The reaction system was incubated at 30° C. for 40 minutes. • 4. The reaction was terminated by adding a stop solution (100 mM HEPES, pH 7.5, 5% DMSO, 0.1% Caliper coating reagent, 10 mM EDTA and 0.015% Brij35). • 5. The culture plate with the terminated kinase reaction was transferred to the Caliper LC 3000 workstation to read the data, the phosphorylated and unphosphorylated peptides were separated by using the Caliper microfluid migration shift technique, and the analyte was transferred by allowing a constant buffer flow through the chip, the migration of the substrate peptide was monitored by the labeled fluorescent signal, and the kinase activity was calculated by using the amount of the phosphate-based peptide formed. • 6. Finally, IC50 values were determined by non-linear regression analysis of percent inhibition at different compound concentrations. II. FGFR4 Cell Proliferation Experiment

In assay [1] the test system is Huh7 hepatocellular carcinoma cells. The assay is described as follows: Cell Titer Glo (CTG) cell proliferation experiment. Type of assay: cell-based. The conditions noted are these: Homo sapiens, 72 h, HuH-7 cells, 3 days; for IC50: concentration leading to absolute half growth inhibition; for EC50: concentration leading to half maximal growth inhibition. As for the experimental part: Cell Titer Glo (CTG) experiment was used in the present invention to evaluate the functional effects of the compounds on cell proliferation. Huh7 hepatocellular carcinoma cells (Catalog No. TChU182) from the Chinese Academy of Sciences cell bank were cultured in DMEM with high glucose (Gibco, cat. No. 1773536), 10% fetal bovine serum (Gibco, 10099-141) at 37° C., in a 5% CO2 incubator. Compound-mediated inhibition of cell proliferation/survival was assessed by quantification of cellular ATP levels using CTG reagent (Promega, #G7573). The specific experimental procedure was as follows: • 1. The cells were seeded into a tissue culture medium-treated 96-well plate (Costar #3904) at 3500 cells/well/90 μL of fresh medium; • 2. 10 μL of medium containing a compound concentration of 10 fold of its final test concentration was added; • 3. The dose effect as evaluated by a 5-fold serial dilution of the test compound, starting from 10 μM. • 4. After cells incubation for 3 days at 37° C. in a 5% CO2 atmosphere, the effect of the inhibitor on cell proliferation was quantified after adding 50 μL of CTG and testing with luminescence. • 5. The concentration of the compound (EC50) leading to half maximal growth inhibition and the concentration of compound (Absolute IC50) leading to absolute half growth inhibition were determined using a four-parameter curve fit in Graphpad Prism in a plate reader (M1000, Tecan).

Sequence of FGFR4 (P22455 22-802): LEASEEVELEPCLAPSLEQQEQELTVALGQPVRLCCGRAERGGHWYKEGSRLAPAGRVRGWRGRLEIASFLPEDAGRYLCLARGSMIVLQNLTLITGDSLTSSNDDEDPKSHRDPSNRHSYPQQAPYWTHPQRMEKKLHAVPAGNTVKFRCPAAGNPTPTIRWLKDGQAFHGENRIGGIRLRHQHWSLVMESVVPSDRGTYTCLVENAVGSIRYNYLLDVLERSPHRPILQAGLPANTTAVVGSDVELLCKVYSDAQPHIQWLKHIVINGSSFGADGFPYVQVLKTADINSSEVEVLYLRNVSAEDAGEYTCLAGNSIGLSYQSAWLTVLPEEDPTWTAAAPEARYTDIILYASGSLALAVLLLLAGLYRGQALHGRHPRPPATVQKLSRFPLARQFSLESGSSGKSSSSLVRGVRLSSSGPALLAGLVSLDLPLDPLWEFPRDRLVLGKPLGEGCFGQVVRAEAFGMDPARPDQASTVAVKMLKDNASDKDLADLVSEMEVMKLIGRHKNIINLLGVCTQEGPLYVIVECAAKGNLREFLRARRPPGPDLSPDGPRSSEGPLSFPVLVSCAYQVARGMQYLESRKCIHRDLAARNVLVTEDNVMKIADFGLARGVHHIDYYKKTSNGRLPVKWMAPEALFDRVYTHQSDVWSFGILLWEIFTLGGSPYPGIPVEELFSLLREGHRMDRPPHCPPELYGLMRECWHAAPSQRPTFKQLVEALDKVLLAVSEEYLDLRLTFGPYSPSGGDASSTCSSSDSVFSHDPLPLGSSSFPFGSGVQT

Take `CN1CCN(Cc2ccc(N(C)C(=O)Nc3cc(NC4CC4)c(C#N)cn3)nc2C=O)C(=O)C1` [Example 1, 3-(5-cyano-4-(cyclopropylamino)pyridin-2-yl)-1-(6-formyl-5-((4-methyl-2-oxopiperazin-1-yl)methyl)pyridin-2-yl)-1-methylurea]: at FGFR4, the IC50 was 0.002 µM. In assay [1], this molecule returned an IC50 of 0.0262 µM and an EC50 of 0.0083 µM.
As to `CN1CCN(Cc2ccc(N(C)C(=O)Nc3cc(NCCF)c(C#N)cn3)nc2C=O)C(=O)C1` [Example 2, 3-(5-cyano-4-((2-fluoroethyl)amino)pyridin-2-yl)-1-(6-formyl-5-((4-methyl-2-oxopiperazin-1-yl)methyl)pyridin-2-yl)-1-methylurea], at FGFR4, the IC50 came to 0.008 µM.
With `CN1CCN(Cc2ccc(N(C)C(=O)Nc3cc(NCC4CC4)c(C#N)cn3)nc2C=O)C(=O)C1` [Example 4, 3-(5-cyano-4-((cyclopropylmethyl)amino)pyridin-2-yl)-1-(6-formyl-5-((4-methyl-2-oxopiperazin-1-yl)methyl)pyridin-2-yl)-1-methylurea], the figures for the IC50 (at FGFR4; in assay [1]) were 0.0038 µM and 0.0774 µM, respectively. This molecule had an EC50 in assay [1] of 0.0256 µM.
In the same order, the values of `CN1CCN(Cc2ccc(N(C)C(=O)Nc3cc(NC4CC(F)(F)C4)c(C#N)cn3)nc2C=O)C(=O)C1` [Example 7, 3-(5-cyano-4-((3,3-difluorocyclobutyl)amino)pyridin-2-yl)-1-(6-formyl-5-((4-methyl-2-oxopiperazin-1-yl)methyl)pyridin-2-yl)-1-methylurea] are 0.0028 µM, 0.0632 µM and 0.0204 µM.
With `COC1CC(Nc2cc(NC(=O)N(C)c3ccc(CN4CCN(C)CC4=O)c(C=O)n3)ncc2C#N)C1` (centres unmarked) [Example 8, 3-(5-cyano-4-((3-methoxycyclobutyl)amino)pyridin-2-yl)-1-(6-formyl-5-((4-methyl-2-oxopiperazin-1-yl)methyl)pyridin-2-yl)-1-methylurea], the half-maximal inhibitory concentration (IC50) at FGFR4 is 0.0058 µM.
`COC1(C)CN(c2cc(NC(=O)N(C)c3ccc(CN4CCN(C)CC4=O)c(C=O)n3)ncc2C#N)C1` [Example 11, 3-(5-cyano-4-(3-methoxy-3methylazetidin-1-yl)pyridin-2-yl)-1-(6-formyl-5-((4-methyl-2-oxopiperazin-1-yl)methyl)pyridin-2-yl)-1-methylurea]: the IC50 on FGFR4 amounted to 0.0069 µM. For the same molecule, in assay [1], the midpoint of inhibition, the IC50, lay at 0.177 µM and the EC50 worked out at 0.0822 µM.
Regarding `CN1CCN(Cc2ccc(N(C)C(=O)Nc3cc(NC4CCOC4)c(C#N)cn3)nc2C=O)C(=O)C1` (centres unmarked) [Example 14, 3-(5-cyano-4-((tetrahydrofuran-3-yl)amino)pyridin-2-yl)-1-(6-formyl-5-((4-methyl-2-oxopiperazin-1-yl)methyl)pyridin-2-yl)-1-methylurea], the IC50 on FGFR4 was 0.0057 µM; in assay [1], 0.0574 µM. This molecule displayed a 50% effective concentration (EC50) in assay [1] of 0.0201 µM.
Take `CN1CCN(Cc2ccc(N(C)C(=O)Nc3cc(NC4CCC(F)(F)C4)c(C#N)cn3)nc2C=O)C(=O)C1` (centres unmarked) [Example 15, 3-(5-cyano-4-((3,3-difluorocyclopentyl)amino)pyridin-2-yl)-1-(6-formyl-5-((4-methyl-2-oxopiperazin-1-yl)methyl)pyridin-2-yl)-1-methylurea]: at FGFR4, the IC50 amounted to 0.0023 µM. Also, in assay [1], the IC50 was determined as 0.0486 µM and the response was half-maximal at 0.0193 µM (EC50).
For `COC1CCN(c2cc(NC(=O)N(C)c3ccc(CN4CCN(C)CC4=O)c(C=O)n3)ncc2C#N)C1` (centres unmarked) [Example 17, 3-(5-cyano-4-(3-methoxypyrrolidin-1-yl)pyridin-2-yl)-1-(6-formyl-5-((4-methyl-2-oxopiperazin-1-yl)methyl)pyridin-2-yl)-1-methylurea], in that order: 0.0065 µM, 0.0849 µM and 0.0381 µM.
As to `CN1CCN(Cc2ccc(N(C)C(=O)Nc3cc(NCC4CCCO4)c(C#N)cn3)nc2C=O)C(=O)C1` (centres unmarked) [Example 21, 3-(5-cyano-4-(((tetrahydrofuran-2-yl)methyl)amino)pyridin-2-yl)-1-(6-formyl-5-((4-methyl-2-oxopiperazin-1-yl)methyl)pyridin-2-yl)-1-methylurea], the IC50 on FGFR4 is 0.008 µM. In assay [1], half-maximal inhibition (IC50) required 0.0554 µM and the EC50 worked out at 0.0227 µM.
Consider `CN1CCN(Cc2ccc(N(C)C(=O)Nc3cc(N4CCOCC4)c(C#N)cn3)nc2C=O)C(=O)C1` [Example 24, 3-(5-cyano-4-morpholinopyridin-2-yl)-1-(6-formyl-5-((4-methyl-2-oxopiperazin-1-yl)methyl)pyridin-2-yl)-1-methylurea], for which the IC50 on FGFR4 was 0.0522 µM. In assay [1], this molecule displayed an IC50 of 1.8 µM and an EC50 of 1.08 µM.
In assay [1], `CN1CCN(Cc2ccc(N(C)C(=O)Nc3cc(N4CCC5(CCOC5)C4)c(C#N)cn3)nc2C=O)C(=O)C1` (centres unmarked) [Example 30, 3-(5-cyano-4-(2-oxa-7-azaspiro[4.4]nonan-7-yl)pyridin-2-yl)-1-(6-formyl-5-((4-methyl-2-oxopiperazin-1-yl)methyl)pyridin-2-yl)-1-methylurea] gave an IC50 of 0.207 µM and an EC50 of 0.0768 µM.
As for `CC(C)Sc1cc(NC(=O)N(C)c2ccc(CN3CCN(C)CC3=O)c(C=O)n2)ncc1C#N` [Example 34, 3-(5-cyano-4-(isopropylthio)pyridin-2-yl)-1-(6-formyl-5-((4-methyl-2-oxopiperazin-1-yl)methyl)pyridin-2-yl)-1-methylurea], the IC50 at FGFR4 came to 0.0029 µM. In assay [1], this molecule came in with an IC50 of 0.118 µM and a concentration for a half-maximal effect (EC50) of 0.0408 µM.
Turning to `COCCOc1cc(NC(=O)N(C)c2ccc(CN3CCN(C)CC3=O)c(C=O)n2)ncc1C#N` [Example 36, 3-(5-cyano-4-(2-methoxyethoxy)pyridin-2-yl)-1-(6-formyl-5-((4-methyl-2-oxopiperazin-1-yl)methyl)pyridin-2-yl)-1-methylurea], the concentration for half-maximal inhibition (IC50) at FGFR4 amounted to 0.0171 µM; in assay [1], 0.41 µM. Also, the concentration for a half-maximal effect (EC50) in assay [1] was found to be 0.191 µM.
For `CN1CCN(Cc2ccc(N(C)C(=O)Nc3cc(OCC4CC4)c(C#N)cn3)nc2C=O)C(=O)C1` [Example 39, 3-(5-cyano-4-(cyclopropylmethoxy)pyridin-2-yl)-1-(6-formyl-5-((4-methyl-2-oxopiperazin-1-yl)methyl)pyridin-2-yl)-1-methylurea], in that order: 0.0034 µM, 0.101 µM and 0.0488 µM.
For the molecule `CCN(C(=O)Nc1cc(NC2CC2)c(C#N)cn1)c1ccc(CN2CCN(C)CC2=O)c(C=O)n1` [Example 51, 3-(5-cyano-4-(cyclopropylamino)pyridin-2-yl)-1-ethyl-1-(6-formyl-5-((4-methyl-2-oxopiperazin-1-yl)methyl)pyridin-2-yl)urea], the results for the IC50 (at FGFR4; in assay [1]) were 0.0014 µM and 0.065 µM, respectively. The EC50 in assay [1] was 0.027 µM.
For `N#Cc1cnc(NC(=O)C2(c3cccc(C=O)n3)CC2)cc1NC1CC1` [Example 52, N-(5-cyano-4-(cyclopropylamino)pyridin-2-yl)-1-(6-formylpyridin-2-yl)cyclopropane-1-carboxamide], the IC50 at FGFR4 is 0.0163 µM.
In the case of `CN1CCN(Cc2ccc(N(C)C(=O)Nc3cc(NC4CC4)c(I)cn3)nc2C=O)C(=O)C1` [Example 56, 3-(4-(cyclopropylamino)-5-iodopyridin-2-yl)-1-(6-formyl-5-((4-methyl-2-oxopiperazin-1-yl)methyl)pyridin-2-yl)-1-methylurea], the IC50 on FGFR4 amounted to 0.0081 µM. In assay [1], the IC50 worked out at 0.223 µM and a half-maximal effect (EC50) was put at 0.093 µM.
